# Source: PMC11290853, “Cholesterol-dependent dynamic changes in the conformation of the type 1 cholecystokinin receptor affect ligand binding and G protein coupling” (PLOS Biology, 2024)
# Changes are numbered by the printed parent chain.
# What was measured:
# CCK1R(Y140A) [1] = target: T1, CCK1R(Y140A) (Homo sapiens, UniProt P32238, Y140A); experiment: fluorescence polarization kinetic assay, CCK1R(Y140A); format: binding
# T1 construct: expressed in transfected cells; some KO cells re-transfected with Galphaq or Galpha11), receptor-enriched membranes
# T1 sequence (P32238 1-428 Y140A): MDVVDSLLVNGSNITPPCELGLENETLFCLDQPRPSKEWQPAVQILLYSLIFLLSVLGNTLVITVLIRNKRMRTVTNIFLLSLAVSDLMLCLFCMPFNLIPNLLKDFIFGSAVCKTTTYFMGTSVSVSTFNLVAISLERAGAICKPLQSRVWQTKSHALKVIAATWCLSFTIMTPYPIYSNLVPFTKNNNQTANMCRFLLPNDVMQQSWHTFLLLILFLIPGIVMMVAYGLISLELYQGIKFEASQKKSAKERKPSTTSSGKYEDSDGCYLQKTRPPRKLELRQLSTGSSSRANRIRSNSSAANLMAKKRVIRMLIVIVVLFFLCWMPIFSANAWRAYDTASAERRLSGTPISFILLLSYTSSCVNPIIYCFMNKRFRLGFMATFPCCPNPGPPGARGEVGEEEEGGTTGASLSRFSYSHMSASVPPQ
# Experimental: (§1) Cells were grown either in Ham-F12 medium supplemented with 5% Fetal Clone II or DMEM supplemented with 10% Fetal Clone II with 1% penicillin-streptomycin, 4 mM glutamine mixture in a humidified atmosphere containing 5% CO2 at 37°C.
# (§2) This was done in the absence or presence of the non-hydrolyzable GTP analogue, GppNHp, at 10 μM concentration.
# CCK1R(sterol 7M) [2] = target: T2, CCK1R(sterol 7M) (Homo sapiens, UniProt P32238, F130L/G141S/I216L/I223V/L219F/M226A/S136A); experiment: fluorescence polarization kinetic assay, CCK1R(sterol 7M); format: binding
# T2 construct: expressed in transfected cells
# T2 sequence (P32238 1-428 F130L/S136A/G141S/I216L/L219F/I223V/M226A): T1 sequence (P32238 1-428 Y140A) with F130L, S136A, A140Y, G141S, I216L, L219F, I223V, M226A
# Experimental: as §1, §2
# CCK2R WT = target: T3, CCK2R WT (Homo sapiens, UniProt P32239); experiment: fluorescence polarization kinetic assay, CCK2R WT; format: binding
# T3 construct: expressed in transfected cells; some KO cells re-transfected with Galphaq or Galpha11), receptor-enriched membranes
# T3 sequence (P32239 1-447): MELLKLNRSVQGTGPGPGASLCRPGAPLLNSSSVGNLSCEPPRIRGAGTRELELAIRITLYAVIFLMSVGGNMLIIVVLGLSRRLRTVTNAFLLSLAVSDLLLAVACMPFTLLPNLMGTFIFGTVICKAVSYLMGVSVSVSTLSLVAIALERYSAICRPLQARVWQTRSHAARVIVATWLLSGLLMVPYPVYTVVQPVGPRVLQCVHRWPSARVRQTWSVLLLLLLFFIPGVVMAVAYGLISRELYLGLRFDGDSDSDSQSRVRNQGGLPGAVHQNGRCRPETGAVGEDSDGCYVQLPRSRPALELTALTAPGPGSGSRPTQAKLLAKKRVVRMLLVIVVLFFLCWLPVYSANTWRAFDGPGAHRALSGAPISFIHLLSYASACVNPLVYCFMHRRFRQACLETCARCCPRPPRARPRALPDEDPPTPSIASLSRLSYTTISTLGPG
# Experimental: as §1, §2
# CCK2R(sterol 7M) = target: T4, CCK2R(sterol 7M) (Homo sapiens, UniProt P32239, A149S/A235M/F228L/L143F/L225I/S154G/V232I); experiment: fluorescence polarization kinetic assay, CCK2R(sterol 7M); format: binding; settings: vs CCK2R
# T4 construct: expressed in transfected cells
# T4 sequence (P32239 1-447 L143F/A149S/S154G/L225I/F228L/V232I/A235M): T3 sequence (P32239 1-447) with L143F, A149S, S154G, L225I, F228L, V232I, A235M
# Experimental: as §1, §2
# SRD15-CCK1R cells = target: T5, SRD15-CCK1R cells (Homo sapiens, UniProt P32238); experiment: fluorescence polarization kinetic assay, SRD15-CCK1R cells; format: binding; settings: vs WT CCK1R
# T5 construct: expressed in transfected cells; host or cells: SRD15 cells (genetically modified CHO cells with elevated membrane cholesterol)
# T5 sequence (P32238 1-428): T1 sequence (P32238 1-428 Y140A) with A140Y
# Experimental: as §1, §2
# CCK1R(Y140A) [3] = experiment: photoaffinity labeling, CCK1R(Y140A); format: binding, human; settings: CNBr cleavage, 10% NuPAGE gel
# Experimental: (§3) After incubation, contents were transferred to a siliconized glass tube and exposed to UV irradiation for 30 min at 4°C with 3,500-Å lamps in a Rayonet photochemical reactor (Southern New England Ultraviolet, Hamden, Connecticut). After photolysis, membrane suspensions were centrifuged at 25,000×g for 5 min and washed twice with ice-cold medium and then resuspended in 30 μl of SDS sample buffer prior to separation on 10% SDS-polyacrylamide gels. Gels were dried and radiolabeled bands were visualized by autoradiography. The apparent molecular weight of radiolabeled receptor fragments was determined from the mobility of Prosieve color protein standards (Cambrex, Rockland, Maine). Receptor radiolabeled bands were excised from the polyacrylamide gel, eluted, and lyophilized, then precipitated with ethanol. Radiochemically pure receptor suspension was cleaved with 2.5 mg of CNBr in 70% formic acid, as described previously. The cleaved receptor products were washed, dried, and resolve in 10% NuPAGE gel with MES running buffer (Invitrogen, Carlsbad, California). The labeled products were identified by autoradiography.
# CCK1R(sterol 7M) [4] = experiment: photoaffinity labeling, CCK1R(sterol 7M); format: binding, human; settings: CNBr cleavage, 10% NuPAGE gel
# Experimental: as §3
# WT CCK1R = settings: large glycosylated CNBr fragment; ref [28],[31]; cited from earlier work
# CCK2R = settings: CNBr fragment; ref [28]; cited from earlier work
Compound,"off rate, Gq or G11 transfected (CCK1R(Y140A) [1]; Gq/11 KO cells)",rate of CCK dissociation (off rate) (CCK1R(Y140A) [1]; vs WT CCK1R),kinetics in Gq/11 KO cells (CCK1R(sterol 7M) [2]; absence of Gq/11 proteins),off rate (CCK1R(sterol 7M) [2]; vs CCK1R and CCK1R(Y140A)),"ligand dissociation rate, Gq or G11 reintroduced (CCK2R WT; Gq/11 KO cells)",rate of CCK dissociation (off rate) (CCK2R WT; vs WT CCK1R),ligand dissociation (CCK2R(sterol 7M)),rate of CCK dissociation (off rate) (SRD15-CCK1R cells),photoaffinity labeling pattern (CCK1R(Y140A) [3]),photoaffinity labeling pattern (CCK1R(sterol 7M) [4]),site of covalent labeling (WT CCK1R),site of covalent labeling (CCK2R)
"CCCC[C@H](NC(=O)[C@H](Cc1ccc(OS(=O)(=O)O)cc1)NC(=O)[C@H](CC(=O)O)NC(=O)CNC(=O)c1ccc(-c2c3ccc(=N)c(S(=O)(=O)O)c-3oc3c(S(=O)(=O)O)c(N)ccc23)c(C(=O)O)c1)C(=O)NCC(=O)N[C@@H](Cc1c[nH]c2ccccc12)C(=O)N[C@@H](CCCC)C(=O)N[C@@H](CC(=O)O)C(=O)N[C@@H](Cc1ccccc1)C(N)=O [alexa^488-Gly-[(Nle^28,31)CCK-26-33]]","transfection of Gq, but not G11, reversed the higher off rate",significantly slower,not altered by absence of Gq/11 proteins,intermediate between that of CCK1R and CCK1R(Y140A),reintroduction of either Gq or G11 reversed the increased ligand dissociation rate,slower at WT CCK2R relative to WT CCK1R,significantly faster ligand dissociation than CCK2R,significantly slower,–,–,–,–
"(^125I-des-amino-Tyr)-Gly-[(Nle^28,31)CCK(26–32)]-Bpa^33",–,–,–,–,–,–,–,–,labeling of a much smaller and non-glycosylated fragment of the receptor,the same as previously demonstrated for WT CCK1R,Trp39,Thr119
